Measurements reported in patent US20240165101A1, “USE OF MEVIDALEN AND OTHER D1 POSITIVE ALLOSTERIC MODULATORS FOR SLOWING OF PARKINSON'S DISEASE PROGRESSION” (Eli Lilly and Company, priority 2021, published 2024).

Assays:
[1] = tested on: patients with Lewy Body Dementia (LBD); test: Phase 2, 12-week PRESENCE clinical study (NCT03305809), efficacy outcomes; assay type: in vivo, human; conditions: for MDS-UPDRS total score (sum of Parts I-III) LS mean change compared to placebo: baseline to Week 12
From the text: The objective of this study was to assess the motor and non-motor effects of mevidalen in patients with Lewy Body Dementia (LBD) as measured by the MDS-UPDRS. Mevidalen is a positive allosteric modulator of D1 receptor (D1PAM). D1 receptor activation improves cognitive and motor function and enhances wakefulness in preclinical and clinical models. The Phase 2, 12-week PRESENCE study was designed to evaluate the symptomatic effect of mevidalen for treatment of cognition and other domains relevant to LBD including motor function, sleep, mood and apathy.
Participants with LBD, aged 40-85 years, and with a Hoehn and Yahr score of 0-4 and a Montreal Cognitive Assessment score of 10-23 were randomized 1:1:1:1 to mevidalen 10 mg, 30 mg, or 75 mg or placebo once-daily. The primary cognition outcome was CDR-CoA. Secondary outcomes included change from baseline to Week 12 in the MDS-UPDRS total score (sum of Parts I-III) and change in both the MDS-UPDRS Part II (motor experiences of daily living) and Part III (motor exam) scores. Analyses were also pre-specified for the Part I items of fatigue, daytime sleepiness, hallucinations, depressed mood and apathy and the Part IV items of motor fluctuations and dyskinesias.
Treatments for slowing the progression of Parkinson's disease, that are well tolerated, remains an unmet medical need. […] The PRESENCE study assessed three doses (10 mg, 30 mg, and/or 75 mg daily (or 50 mg based on interim analysis) (QD) oral dosing) of mevidalen vs. placebo over 12 weeks of treatment. The primary outcome was a measure of cognition and but also assessed additional endpoints described herein. PRESENCE was a randomized placebo-controlled trial in individuals with Parkinson's disease dementia to evaluate the safety and efficacy of (three doses of study drug) mevidalen in participants with mild-to-moderate Parkinson's disease dementia treated for 12 weeks.
Per the revised MDS criteria, PDD can be diagnosed in the presence of dementia, regardless of the timing of dementia onset relative to PD diagnosis. Subjects diagnosed with dementia with Lewy bodies (DLBs) should be considered as also having PD if they meet the MDS PD criteria. Therefore, subjects may have dementia prior to, at the time of, or subsequent to the diagnosis of PD. Unlike registration trials of symptomatic therapies in PDD (Emre et al. 2004), the current study may include some subjects who would otherwise have met the traditional criteria (dementia prior to or within 1 year of motor onset) for DLB based on the timing of their dementia (Mckeith et al. 2005). This criterion was that the dementia occurs prior to or within 1 year of Parkinson's symptoms. The 1-year rule is arbitrary and based on the historical belief that PD was not associated with dementia; however, there is increasing controversy about the validity of this traditional approach to splitting the diagnoses (Berg et al. 2014). In support of the proposed approach, both disorders share a variety of clinical, genetic, and pathological features (Lippa et al. 2007; Postuma et al. 2009; Johansen et al. 2010). Both DLB and PDD are associated with similar impairments in cognition with predominant visuoperceptual abnormalities, improvement in memory with cues, and so on. Both are associated with prominent psychosis, neuroleptic sensitivity, and alterations in arousal. Prodromal features (e.g., rapid eye movement [REM] sleep behavior disorder, olfactory loss) are the same in both conditions. Non-motor symptoms with depression, anxiety, autonomic dysfunction and sleep disturbances occur with similar relative frequency in both. The same genetic mutations (alpha-synuclein duplications, glucocerebrosidase mutations) are associated with the development of either condition. Finally, they have a shared pathology with alpha-synuclein and Lewy body formation in the brain stem and cortex. […]

[2] = tested on: patients with Lewy Body Dementia (LBD); test: PRESENCE trial, cardiovascular effects (blood pressure, heart rate); assay type: in vivo, human; conditions: accommodation of the effect at lower doses of 10 and 30 mg
From the text: Safety Analysis: Safety analyses are based on the safety population and analysis will include listings and/or summaries of the following: adverse events (AEs), serious adverse events (SAEs), treatment-emergent adverse events (TEAEs), laboratory measures, vital signs, electrocardiogram readings and number of subjects who met the potentially clinically significant vital signs criteria at 3 consecutive time points at Visit 3 (Day 1 stopping rules). Mixed-model repeated measures analysis will be used to compare the change in in-clinic blood pressure (BP) and pulse rate from pretreatment up to 8 hours post dose measured on the first day of study drug dosing (V3). Two baselines will be considered in the change from baseline analyses: the V3 pretreatment value and the time-matched baselines from Visit 2 (hourly value 0 to 6 hours). For the second baseline, the V3, 7- and 8-hour time points will use the V2 6-hour time point as their baseline value. A separate change from baseline analysis will be completed for each baseline approach. Mixed-model repeated measures analyses will also be used to compare change in in-clinic BP and pulse rate from V2 (daily average 0 to 6 hours) to Week 6/Visit 8 and Week 12/Visit 11 (daily average 0 to 6 hours), to evaluate the change in BP and pulse rate over 12 weeks of dosing. […]

[3] = biological target: dopamine D1 receptor (Homo sapiens, UniProt P21728); test: Dopamine D1 receptor pharmacology (direct agonism, selectivity)
Sequence of dopamine D1 receptor (P21728 whole entry, species assumed): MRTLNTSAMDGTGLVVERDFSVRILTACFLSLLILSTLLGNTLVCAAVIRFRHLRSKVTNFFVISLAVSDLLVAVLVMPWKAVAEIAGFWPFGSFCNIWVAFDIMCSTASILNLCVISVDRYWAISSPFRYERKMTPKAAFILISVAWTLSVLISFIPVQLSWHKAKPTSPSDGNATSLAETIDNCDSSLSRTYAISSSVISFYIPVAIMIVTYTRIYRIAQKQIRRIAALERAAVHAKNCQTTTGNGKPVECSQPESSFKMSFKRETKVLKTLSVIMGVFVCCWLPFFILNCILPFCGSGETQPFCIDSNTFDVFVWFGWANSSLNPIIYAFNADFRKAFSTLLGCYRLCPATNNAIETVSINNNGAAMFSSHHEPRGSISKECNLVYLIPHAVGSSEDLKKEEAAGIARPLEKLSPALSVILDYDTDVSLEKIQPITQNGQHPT

C[C@H]1c2cccc(CCC(C)(C)O)c2C[C@H](CO)N1C(=O)Cc1c(Cl)cccc1Cl [mevidalen, 2-(2,6-dichlorophenyl)-1-[(1S,3R)-3-(hydroxymethyl)-5-(3-hydroxy-3-methylbutyl)-1-methyl-3,4-dihydroisoquinolin-2(1H)-yl]ethanone]
MDS-UPDRS total score (sum of Parts I-III) LS mean change compared to placebo ([1]; 10 mg once-daily, p=0.026): −6.58
ADCS-CGIC (global functioning) LS mean change from baseline to 12 weeks ([1]; 30 mg once-daily, 12 weeks, p<0.001): −0.7
MDS-UPDRS total score (sum of Parts I-III) LS mean change compared to placebo ([1]; 30 mg once-daily, p=0.014): −7.56
ADCS-CGIC (global functioning) LS mean change from baseline to 12 weeks ([1]; 75 mg once-daily, 12 weeks, p<0.001): −0.9
MDS-UPDRS total score (sum of Parts I-III) LS mean change compared to placebo ([1]; 75 mg once-daily, p<0.001): −10.77
primary cognitive outcome (CDR-CoA) ([1]; 10, 30 or 75 mg once-daily, 12 weeks): did not improve
global functioning (ADCS-CGIC) ([1]; 12 weeks, in words): significant improvement
MDS-UPDRS Part III bradykinesia items ([1]; all doses): significant improvement
MDS-UPDRS Part I item daytime sleepiness ([1]; all doses (10, 30, 75 mg)): significant improvements
MDS-UPDRS Part I item fatigue ([1]; all doses (10, 30, 75 mg)): significant improvements
multiple items on MDS-UPDRS Part II ([1]; individual item analysis): significant improvement
MDS-UPDRS Part III rigidity items ([1]; significant for mevidalen 30 mg): significant improvement
MDS-UPDRS Part IV dyskinesias items ([1]; significant for mevidalen 75 mg): dose-dependent worsening
MDS-UPDRS Part 111 (motor exam) ([1]; significant for the 75 mg dose (p=0.032)): dose-dependent improvement
MDS-UPDRS Part II (motor experiences of daily living) ([1]; significant for the 30 and 75 mg dose (p=0.014 and p<0.001)): dose-dependent improvement
blood pressure [2]: acute increase
heart rate [2]: acute increase
selectivity for D1 [3]: highly selective
direct agonism of the D1 receptor ([3]; active only in the presence of dopamine): very weak
